# Experimental data published in ChEMBL document CHEMBL1133899, “Amino acid derived sulfonamide hydroxamates as inhibitors of procollagen C-proteinase: solid-phase synthesis of ornithine analogues” (Bioorg Med Chem Lett, 2001).
# Biological target: T1, Bone morphogenetic protein 1 (Homo sapiens, UniProt P13497)
# T1 sequence (P13497 whole entry): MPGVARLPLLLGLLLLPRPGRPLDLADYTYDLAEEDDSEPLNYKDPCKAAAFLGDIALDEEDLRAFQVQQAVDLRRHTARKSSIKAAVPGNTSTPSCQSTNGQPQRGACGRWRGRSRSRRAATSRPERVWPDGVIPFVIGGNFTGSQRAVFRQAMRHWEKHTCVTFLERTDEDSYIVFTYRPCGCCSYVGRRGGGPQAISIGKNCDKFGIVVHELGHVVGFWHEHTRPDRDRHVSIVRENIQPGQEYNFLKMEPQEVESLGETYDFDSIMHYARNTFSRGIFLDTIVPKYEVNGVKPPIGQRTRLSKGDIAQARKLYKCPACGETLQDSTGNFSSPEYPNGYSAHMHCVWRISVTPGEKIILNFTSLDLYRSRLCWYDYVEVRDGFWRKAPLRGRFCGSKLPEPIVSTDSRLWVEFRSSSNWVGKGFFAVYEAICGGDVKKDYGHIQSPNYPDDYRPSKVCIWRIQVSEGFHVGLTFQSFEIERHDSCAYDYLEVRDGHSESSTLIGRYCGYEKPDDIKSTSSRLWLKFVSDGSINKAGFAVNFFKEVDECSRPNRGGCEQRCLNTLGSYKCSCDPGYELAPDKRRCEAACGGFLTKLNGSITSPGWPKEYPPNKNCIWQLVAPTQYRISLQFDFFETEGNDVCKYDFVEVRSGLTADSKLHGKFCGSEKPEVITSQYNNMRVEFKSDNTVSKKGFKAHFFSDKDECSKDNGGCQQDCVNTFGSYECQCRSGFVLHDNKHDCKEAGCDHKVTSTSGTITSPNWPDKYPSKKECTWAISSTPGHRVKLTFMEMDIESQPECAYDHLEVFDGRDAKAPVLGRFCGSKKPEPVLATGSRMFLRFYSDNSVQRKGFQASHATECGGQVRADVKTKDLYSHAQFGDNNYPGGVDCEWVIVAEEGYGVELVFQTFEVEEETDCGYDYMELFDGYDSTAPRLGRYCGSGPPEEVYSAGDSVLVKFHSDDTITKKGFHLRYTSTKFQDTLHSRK
# Assay: The compound was evaluated for its inhibitory effect against Procollagen C-terminal proteinase
row,IC50,Compound
1,110 nM,COc1ccc(S(=O)(=O)N[C@H](CCCNC(=O)N[C@H](C)c2ccccc2)C(=O)NO)cc1
2,230 nM,COc1ccc(S(=O)(=O)N[C@H](CCCNC(=O)NC2CCCCC2)C(=O)NO)cc1

# Biological target: T1, Bone morphogenetic protein 1
# Assay: Inhibitory activity against procollagen C-Proteinase (PCP).
row,Compound,IC50
1,COc1ccc(S(=O)(=O)N[C@H](CCCNC(=O)C2CC2)C(=O)NO)cc1,770 nM
2,C[C@@H](NC(=O)NCCC[C@@H](NS(=O)(=O)c1ccc(F)cc1Cl)C(=O)NO)c1ccccc1,61000 nM
3,COc1ccc(S(=O)(=O)N[C@H](CCCNC(=O)N[C@@H]2C[C@H]2c2ccccc2)C(=O)NO)cc1,170 nM
4,COc1ccc(S(=O)(=O)N[C@@H](CCCNC(=O)NCCc2cccs2)C(=O)NO)cc1,5500 nM
5,COc1ccc(S(=O)(=O)N[C@H](CCCNC(=O)N[C@H](C)c2ccccc2)C(=O)NO)cc1,110 nM
6,COc1ccc(S(=O)(=O)N[C@H](CCCNC(=O)Nc2cccc(F)c2)C(=O)NO)cc1,160 nM
7,COc1ccc(S(=O)(=O)N[C@H](CCCNC(=O)Nc2ccccc2C)C(=O)NO)cc1,260 nM
8,COc1ccc(S(=O)(=O)N[C@@H](CCCNC(=O)Nc2cccc(F)c2)C(=O)NO)cc1,4000 nM
9,COc1ccc(S(=O)(=O)N[C@H](CCCNC(=O)C2CCCCC2)C(=O)NO)cc1,1600 nM
10,COc1ccc(S(=O)(=O)N[C@@H](CCCNC(=O)Nc2ccccc2Cl)C(=O)NO)cc1,7800 nM
11,C[C@@H](NC(=O)NCCC[C@@H](NS(=O)(=O)c1ccc(Cl)cc1)C(=O)NO)c1ccccc1,910 nM
12,COc1cc(C)c(S(=O)(=O)N[C@H](CCCNC(=O)N[C@H](C)c2ccccc2)C(=O)NO)c(C)c1,23000 nM
13,COc1ccc(S(=O)(=O)N[C@H](CCCNC(=O)NCCc2cccs2)C(=O)NO)cc1,78 nM
14,COc1ccc(S(=O)(=O)N[C@@H](CCCNC(=O)N[C@H](C)c2ccccc2)C(=O)NO)cc1,2100 nM
15,C[C@@H](NC(=O)NCCC[C@@H](NS(=O)(=O)c1ccc(Cl)s1)C(=O)NO)c1ccccc1,9600 nM
16,COc1ccc(S(=O)(=O)N[C@H](CCCNS(=O)(=O)c2ccccc2)C(=O)NO)cc1,3400 nM
17,COc1ccc(S(=O)(=O)N[C@@H](CCCNC(=O)Nc2ccccc2)C(=O)NO)cc1,6900 nM
18,C[C@@H](NC(=O)NCCC[C@@H](NS(=O)(=O)c1ccc(S(=O)(=O)c2cccs2)cc1)C(=O)NO)c1ccccc1,5000 nM
19,COc1ccc(S(=O)(=O)N[C@@H](CCCNC(=O)NC2CC2c2ccccc2)C(=O)NO)cc1 (stereo partly specified),290 nM
20,COc1ccc(S(=O)(=O)N[C@@H](CCCNC(=O)NC2CCCCC2)C(=O)NO)cc1,3600 nM
21,COc1ccc(S(=O)(=O)N[C@H](CCCNC(=O)Nc2ccccc2Cl)C(=O)NO)cc1,92 nM
22,COc1ccc(S(=O)(=O)N[C@H](CCC/N=C(\S)NC2CCCCC2)C(=O)NO)cc1,1700 nM
23,COc1ccc(S(=O)(=O)N[C@H](CCCNC(=O)OC(C)(C)C)C(=O)NO)cc1,4500 nM
24,COc1ccc(S(=O)(=O)N[C@H](CCCNC(=O)C(C)C)C(=O)NO)cc1,1400 nM
25,C[C@@H](NC(=O)NCCC[C@@H](NS(=O)(=O)c1ccccc1Cl)C(=O)NO)c1ccccc1,2300 nM
26,COc1ccc(S(=O)(=O)N(Cc2cccnc2)[C@@H](C(=O)NO)C(C)C)cc1 [CGS-27023A],3000 nM

# The remaining lines, values ahead:
row,IC50,Compound
1,24 nM,COc1ccc(S(=O)(=O)N(Cc2ccc3c(c2)OCO3)[C@H](CCCNC(=O)OCc2ccccc2Br)C(=O)NO)cc1
2,9 nM,COc1ccc(S(=O)(=O)N(Cc2ccc3c(c2)OCO3)[C@H](CCCNC(=O)OCc2ccccc2)C(=O)NO)cc1
3,3.9 nM,COc1ccc(S(=O)(=O)N(Cc2ccc3c(c2)OCO3)[C@H](CCCNC(=O)OCc2ccccc2Cl)C(=O)NO)cc1
4,58 nM,COc1ccc(S(=O)(=O)N(Cc2ccc3c(c2)OCO3)[C@H](CCCNC(=O)NCc2ccccc2)C(=O)NO)cc1
5,140 nM,COC(=O)[C@@H](Cc1ccccc1)NC(=O)NCCC[C@@H](NS(=O)(=O)c1ccc(OC)cc1)C(=O)NO
6,120 nM,COc1ccc(S(=O)(=O)N(Cc2ccc3c(c2)OCO3)[C@H](CCCNC(=O)NCc2cccc3ccccc23)C(=O)NO)cc1
7,1600 nM,COc1ccc(S(=O)(=O)N[C@@H](CCCNC(=O)N[C@H](C)c2cccc3ccccc23)C(=O)NO)cc1
8,45 nM,COc1ccc(S(=O)(=O)N(Cc2ccc3c(c2)OCO3)[C@H](CCCNC(=O)OCC(C)C)C(=O)NO)cc1
9,50 nM,COc1ccc(S(=O)(=O)N(Cc2ccc3c(c2)OCO3)[C@H](CCCNC(=O)NCc2cccc(C)c2)C(=O)NO)cc1
10,38 nM,COc1ccc(S(=O)(=O)N(Cc2ccc3c(c2)OCO3)[C@H](CCCNC(=O)OCc2cccc([N+](=O)[O-])c2)C(=O)NO)cc1
11,97 nM,CCCNC(=O)NCCC[C@H](C(=O)NO)N(Cc1ccc2c(c1)OCO2)S(=O)(=O)c1ccc(OC)cc1
12,220 nM,CCOC(=O)NCCC[C@H](C(=O)NO)N(Cc1ccc2c(c1)OCO2)S(=O)(=O)c1ccc(OC)cc1
13,160 nM,COc1ccc(S(=O)(=O)N[C@H](CCCNC(=O)N[C@H](C)c2cccc3ccccc23)C(=O)NO)cc1
14,98 nM,COc1ccc(S(=O)(=O)N(Cc2ccc3c(c2)OCO3)[C@H](CCCNC(=O)c2ccccc2)C(=O)NO)cc1
15,50 nM,COc1ccc(S(=O)(=O)N(Cc2ccc3c(c2)OCO3)[C@H](CCCNC(=O)NCCc2ccccc2)C(=O)NO)cc1
16,970 nM,COc1ccc(S(=O)(=O)N[C@H](CCCNC(=O)CCc2ccccc2)C(=O)NO)cc1
17,45 nM,COc1ccc(S(=O)(=O)N(Cc2ccc3c(c2)OCO3)[C@H](CCCNC(=O)OCc2ccc([N+](=O)[O-])cc2)C(=O)NO)cc1
18,55 nM,COc1ccc(S(=O)(=O)N[C@H](CCCNC(=O)Nc2ccccc2)C(=O)NO)cc1
19,1600 nM,COc1ccc(S(=O)(=O)N(C)[C@H](CCCNC(=O)Nc2ccccc2)C(=O)NO)cc1
20,990 nM,COc1ccc(S(=O)(=O)N[C@H](CCCNC(=S)NCc2ccccc2)C(=O)NO)cc1
21,7200 nM,COc1ccc(S(=O)(=O)N(C)[C@H](CCCNC(=O)Nc2ccccc2Cl)C(=O)NO)cc1
22,5900 nM,COC(=O)[C@@H](Cc1ccccc1)NC(=O)NCCC[C@H](NS(=O)(=O)c1ccc(OC)cc1)C(=O)NO
23,2300 nM,COc1ccc(S(=O)(=O)N(C)[C@H](CCCNC(=O)NC(C)c2ccccc2)C(=O)NO)cc1 (stereo partly specified)
